Patent US12171232B1, “N-[(4,6-dimethylpyrimidin-2-yl)carbamothioyl] pyridine-3-carboxamide as an eco-friendly insecticidal agent against Spodoptera littoralis (boisd.)” (KING FAISAL UNIVERSITY, priority 2023, dated 2024)
Values after ≈ are worked out from the molar mass of the structure shown. Where two headings read alike, the source gives them in different places.

Tested on: Spodoptera littoralis
Assay: Insecticidal bioassay screening (castor leaf dip) on larvae of the laboratory strain of cotton leafworm
Format: in vivo
Conditions: for Toxicity index %: 72 hrs, Diflubenzuron's LC50 / compound's LC50 x 100; for LC90 (mg/L) at 95%: laboratory strain, after 72 hrs of treatment; for LC50: Spodoptera littoralis, foliar
Description: Five concentrations (200, 100, 50, 25, 12.5 ppm) were designed for this synthetic compound and the reference Diflubenzuron compound as the dynamic ingredients based on ppm via diluting the commercial formulation.
In this experiment, castor leaves are immersed in each of the previously prepared concentrations of the components for 10 seconds and then left to dry for 60 minutes. Larvae of the second and fourth instars of each checked strain are prepared with treated leaves in gauze-covered glass containers for 72 hrs. An untreated control is made in which leaves are dipped in triton x-100 and distilled water only. Then the preserved leaves were removed & fresh, untreated leaves were provided for 72 hours. Three replicates (10 larvae each) were checked for each concentration. Daily inspection was carried out for all treatments and mortality percentages were recorded 3 days (72 hours) after treatment. The average mortality percentage was corrected employing Abbott's formula. The corrected mortality rate for each of the previously synthesized compounds is statistically calculated according to Finney (1970). Through this rate, the corresponding concentration test lines (LDP lines) are assessed.

[1] = 72 h, read-out: LC50 (mg/L) at 95%, 2nd instar larvae, laboratory strain, after 72 hrs of treatment
[2] = 72 h, read-out: LC50 (mg/L) at 95%, 4th instar larvae, laboratory strain, after 72 hrs of treatment

Cc1cc(C)nc(NC(=S)NC(=O)c2cccnc2)n1 [Compound 2, N-[(4,6-Dimethylpyrimidin-2-yl)carbamothioyl]pyridine-3-carboxamide]
Toxicity index % (2nd instar larvae): 31.8%
LC90 (mg/L) at 95% (2nd instar larvae): 2112.3 mg/L (≈ 7350 µM)
Toxicity index % (4th instar larvae): 44.9%
LC90 (mg/L) at 95% (4th instar larvae): 5732.3 mg/L (≈ 19900 µM)
LC50 [1]: ~142 mg/L (≈ 495 µM)
LC50 [2]: ~321 mg/L (≈ 1120 µM)
activity against Spodoptera littoralis (result in words, from Table 1 and FIGS. 2A-2B, 72 h): active

O=C(NC(=O)c1c(F)cccc1F)Nc1ccc(Cl)cc1 [Diflubenzuron]
Toxicity index % (2nd instar larvae): 100%
LC90 (mg/L) at 95% (2nd instar larvae): 520.0 mg/L (≈ 1670 µM)
Toxicity index % (4th instar larvae): 100%
LC90 (mg/L) at 95% (4th instar larvae): 1540.5 mg/L (≈ 4960 µM)
LC50 [1]: 45.2 mg/L (≈ 145 µM)
LC50 [2]: 144 mg/L (≈ 464 µM)
LC50 (against Spodoptera littoralis under laboratory conditions, instar not stated): 45.2 mg/L (≈ 145 µM)
